Common to all, as to experiment: Kinase selectivity, DiscoverX scanMAX Kinase assay panel (% control)
Common to all, as to format: binding

Experiment [1] concerns the target T1, kinases of the scanMAX Kinase assay panel (Homo sapiens, UniProt O60285).
T1 construct: purchased DiscoverX Co. (contract measurement) scanMAX Kinase assay panel
T1 sequence (O60285 1-661): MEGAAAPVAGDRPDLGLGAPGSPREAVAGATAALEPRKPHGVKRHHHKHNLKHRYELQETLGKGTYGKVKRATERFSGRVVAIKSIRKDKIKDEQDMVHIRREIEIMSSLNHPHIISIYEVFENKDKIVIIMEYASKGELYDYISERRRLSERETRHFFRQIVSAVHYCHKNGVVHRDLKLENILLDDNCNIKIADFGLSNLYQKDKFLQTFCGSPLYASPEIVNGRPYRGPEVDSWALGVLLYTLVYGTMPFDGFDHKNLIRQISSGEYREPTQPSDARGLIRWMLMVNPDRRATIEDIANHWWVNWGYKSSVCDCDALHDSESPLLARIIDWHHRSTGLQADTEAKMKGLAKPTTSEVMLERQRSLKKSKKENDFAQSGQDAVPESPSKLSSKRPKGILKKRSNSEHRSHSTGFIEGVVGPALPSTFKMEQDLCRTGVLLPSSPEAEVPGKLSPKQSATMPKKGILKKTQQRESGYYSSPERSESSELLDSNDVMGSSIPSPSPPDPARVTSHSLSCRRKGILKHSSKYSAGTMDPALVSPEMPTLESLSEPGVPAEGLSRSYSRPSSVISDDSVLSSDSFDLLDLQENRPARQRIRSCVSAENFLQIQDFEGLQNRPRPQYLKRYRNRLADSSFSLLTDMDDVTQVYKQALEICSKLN
To be noted: ARK5; 1 uM. In a few lines:
(§1)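 Single-point screen, 1 uM cpd in DMSO. % ctrl = (cpd − pos ctrl)/(neg ctrl − pos ctrl)×100; pos ctrl = 0%, DMSO neg ctrl = 100%. Hit cutoff <35%.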

For experiment [2], the target named is T2, kinases of the scanMAX Kinase assay panel (Homo sapiens, UniProt P22455).
T2 construct: purchased DiscoverX Co. (contract measurement) scanMAX Kinase assay panel
As to conditions: FGFR4; 1 uM. In a few lines: as §1

Experiment [3] concerns the target T3, kinases of the scanMAX Kinase assay panel (Homo sapiens, UniProt P29323).
T3 construct: purchased DiscoverX Co. (contract measurement) scanMAX Kinase assay panel
T3 sequence (P29323 19-1055): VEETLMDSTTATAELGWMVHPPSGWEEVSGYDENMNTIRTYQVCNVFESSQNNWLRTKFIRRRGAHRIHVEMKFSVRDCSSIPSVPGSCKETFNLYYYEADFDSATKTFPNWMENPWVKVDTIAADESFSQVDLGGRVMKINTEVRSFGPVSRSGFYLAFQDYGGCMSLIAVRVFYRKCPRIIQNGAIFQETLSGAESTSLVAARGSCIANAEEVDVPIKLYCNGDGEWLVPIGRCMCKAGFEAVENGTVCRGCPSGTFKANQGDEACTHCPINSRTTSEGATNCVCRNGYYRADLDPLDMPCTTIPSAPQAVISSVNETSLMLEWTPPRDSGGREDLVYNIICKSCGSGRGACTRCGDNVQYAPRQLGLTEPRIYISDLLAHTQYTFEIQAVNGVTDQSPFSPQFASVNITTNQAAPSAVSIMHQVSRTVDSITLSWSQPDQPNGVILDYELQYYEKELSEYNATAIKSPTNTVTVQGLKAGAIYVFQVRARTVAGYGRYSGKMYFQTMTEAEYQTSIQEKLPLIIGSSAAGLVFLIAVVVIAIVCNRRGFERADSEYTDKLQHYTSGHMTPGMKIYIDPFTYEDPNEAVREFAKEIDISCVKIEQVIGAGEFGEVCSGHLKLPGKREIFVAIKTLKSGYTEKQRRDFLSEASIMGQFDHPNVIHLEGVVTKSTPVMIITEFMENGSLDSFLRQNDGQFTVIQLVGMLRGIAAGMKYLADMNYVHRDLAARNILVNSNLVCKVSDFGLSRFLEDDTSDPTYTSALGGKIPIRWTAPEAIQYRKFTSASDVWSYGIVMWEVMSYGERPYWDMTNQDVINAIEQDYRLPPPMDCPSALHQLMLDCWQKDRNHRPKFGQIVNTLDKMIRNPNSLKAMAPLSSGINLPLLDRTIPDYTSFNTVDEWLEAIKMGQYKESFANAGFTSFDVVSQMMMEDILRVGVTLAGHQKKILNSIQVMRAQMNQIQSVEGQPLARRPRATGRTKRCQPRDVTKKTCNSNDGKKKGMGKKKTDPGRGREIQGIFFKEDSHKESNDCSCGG
As to conditions: EPHB2; 1 uM. An outline of the steps: as §1

For experiment [4], the target named is T4, kinases of the scanMAX Kinase assay panel (Homo sapiens, UniProt Q16566).
T4 construct: purchased DiscoverX Co. (contract measurement) scanMAX Kinase assay panel
T4 sequence (Q16566 1-473): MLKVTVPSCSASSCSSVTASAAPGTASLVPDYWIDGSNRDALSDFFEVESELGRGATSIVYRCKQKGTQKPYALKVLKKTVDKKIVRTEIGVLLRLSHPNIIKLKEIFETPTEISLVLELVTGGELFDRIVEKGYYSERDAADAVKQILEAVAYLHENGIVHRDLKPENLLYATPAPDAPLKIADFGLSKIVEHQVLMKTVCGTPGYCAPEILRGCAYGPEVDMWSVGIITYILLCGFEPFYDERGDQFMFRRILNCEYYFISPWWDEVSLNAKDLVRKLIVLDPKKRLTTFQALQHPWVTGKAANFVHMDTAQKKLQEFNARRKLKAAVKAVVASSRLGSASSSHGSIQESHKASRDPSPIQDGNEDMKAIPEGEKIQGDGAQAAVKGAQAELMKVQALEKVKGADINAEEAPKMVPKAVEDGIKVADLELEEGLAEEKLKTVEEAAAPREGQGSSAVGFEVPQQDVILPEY
As to conditions: CAMK4; 1 uM. An outline of the steps:
as §1

Experiment [5] concerns the target T5, kinases of the scanMAX Kinase assay panel (Homo sapiens, UniProt Q9BX84).
T5 construct: purchased DiscoverX Co. (contract measurement) scanMAX Kinase assay panel
As to conditions: kinase TRPM6; 1 uM in DMSO. An outline of the steps:
as §1

T5 sequence (Q9BX84 whole entry): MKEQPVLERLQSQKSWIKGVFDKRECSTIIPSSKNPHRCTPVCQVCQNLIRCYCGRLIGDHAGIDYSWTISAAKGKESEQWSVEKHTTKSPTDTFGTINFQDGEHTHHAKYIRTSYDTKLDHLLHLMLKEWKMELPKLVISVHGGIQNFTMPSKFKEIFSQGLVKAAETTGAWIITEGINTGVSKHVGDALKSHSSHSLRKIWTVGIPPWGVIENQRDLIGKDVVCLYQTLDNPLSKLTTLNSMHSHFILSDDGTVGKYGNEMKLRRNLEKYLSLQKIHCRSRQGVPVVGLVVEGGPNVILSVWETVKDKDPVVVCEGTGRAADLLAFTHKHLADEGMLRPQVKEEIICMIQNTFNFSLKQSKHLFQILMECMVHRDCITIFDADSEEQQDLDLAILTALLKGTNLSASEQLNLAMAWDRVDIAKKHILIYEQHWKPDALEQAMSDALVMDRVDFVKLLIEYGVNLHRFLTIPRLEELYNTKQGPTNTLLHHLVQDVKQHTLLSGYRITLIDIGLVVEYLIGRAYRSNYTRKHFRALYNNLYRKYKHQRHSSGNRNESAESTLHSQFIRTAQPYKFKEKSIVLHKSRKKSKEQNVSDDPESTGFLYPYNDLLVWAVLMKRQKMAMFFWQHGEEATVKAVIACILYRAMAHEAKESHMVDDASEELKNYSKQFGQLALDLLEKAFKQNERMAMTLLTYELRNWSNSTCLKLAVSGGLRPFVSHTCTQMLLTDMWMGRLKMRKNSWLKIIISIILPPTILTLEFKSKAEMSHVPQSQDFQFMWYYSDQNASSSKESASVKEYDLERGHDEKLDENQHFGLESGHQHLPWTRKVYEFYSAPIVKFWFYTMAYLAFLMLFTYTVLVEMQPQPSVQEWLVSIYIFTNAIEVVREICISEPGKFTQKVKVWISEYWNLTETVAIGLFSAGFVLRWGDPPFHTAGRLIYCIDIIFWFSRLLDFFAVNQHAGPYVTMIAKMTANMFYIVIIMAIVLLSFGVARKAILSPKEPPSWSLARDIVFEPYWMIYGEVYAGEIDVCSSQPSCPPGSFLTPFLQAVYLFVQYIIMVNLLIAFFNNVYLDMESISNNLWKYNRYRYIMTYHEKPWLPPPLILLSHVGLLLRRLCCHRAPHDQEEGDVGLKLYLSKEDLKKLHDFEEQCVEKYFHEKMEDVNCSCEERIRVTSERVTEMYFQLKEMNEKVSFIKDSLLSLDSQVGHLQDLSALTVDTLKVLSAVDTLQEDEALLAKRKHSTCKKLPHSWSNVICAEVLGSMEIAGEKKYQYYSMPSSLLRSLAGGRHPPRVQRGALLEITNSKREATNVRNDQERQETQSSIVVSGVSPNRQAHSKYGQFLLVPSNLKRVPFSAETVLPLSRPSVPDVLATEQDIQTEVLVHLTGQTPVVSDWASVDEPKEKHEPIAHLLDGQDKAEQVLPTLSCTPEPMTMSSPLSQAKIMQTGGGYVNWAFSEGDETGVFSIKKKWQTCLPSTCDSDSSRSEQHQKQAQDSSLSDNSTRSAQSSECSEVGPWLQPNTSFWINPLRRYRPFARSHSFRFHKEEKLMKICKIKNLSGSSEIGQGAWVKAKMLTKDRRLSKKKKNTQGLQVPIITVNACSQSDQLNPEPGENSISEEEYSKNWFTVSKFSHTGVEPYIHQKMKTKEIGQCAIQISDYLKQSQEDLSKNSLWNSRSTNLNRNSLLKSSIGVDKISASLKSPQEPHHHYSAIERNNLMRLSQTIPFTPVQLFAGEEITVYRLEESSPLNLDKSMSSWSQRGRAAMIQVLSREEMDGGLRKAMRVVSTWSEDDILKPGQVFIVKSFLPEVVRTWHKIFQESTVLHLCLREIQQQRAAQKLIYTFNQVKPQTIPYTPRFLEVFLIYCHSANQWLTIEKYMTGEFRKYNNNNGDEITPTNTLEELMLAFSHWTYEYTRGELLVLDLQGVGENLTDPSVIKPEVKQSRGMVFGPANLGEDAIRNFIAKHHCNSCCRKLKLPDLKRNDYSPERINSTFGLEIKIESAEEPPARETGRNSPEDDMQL
T2 sequence (P22455 22-802): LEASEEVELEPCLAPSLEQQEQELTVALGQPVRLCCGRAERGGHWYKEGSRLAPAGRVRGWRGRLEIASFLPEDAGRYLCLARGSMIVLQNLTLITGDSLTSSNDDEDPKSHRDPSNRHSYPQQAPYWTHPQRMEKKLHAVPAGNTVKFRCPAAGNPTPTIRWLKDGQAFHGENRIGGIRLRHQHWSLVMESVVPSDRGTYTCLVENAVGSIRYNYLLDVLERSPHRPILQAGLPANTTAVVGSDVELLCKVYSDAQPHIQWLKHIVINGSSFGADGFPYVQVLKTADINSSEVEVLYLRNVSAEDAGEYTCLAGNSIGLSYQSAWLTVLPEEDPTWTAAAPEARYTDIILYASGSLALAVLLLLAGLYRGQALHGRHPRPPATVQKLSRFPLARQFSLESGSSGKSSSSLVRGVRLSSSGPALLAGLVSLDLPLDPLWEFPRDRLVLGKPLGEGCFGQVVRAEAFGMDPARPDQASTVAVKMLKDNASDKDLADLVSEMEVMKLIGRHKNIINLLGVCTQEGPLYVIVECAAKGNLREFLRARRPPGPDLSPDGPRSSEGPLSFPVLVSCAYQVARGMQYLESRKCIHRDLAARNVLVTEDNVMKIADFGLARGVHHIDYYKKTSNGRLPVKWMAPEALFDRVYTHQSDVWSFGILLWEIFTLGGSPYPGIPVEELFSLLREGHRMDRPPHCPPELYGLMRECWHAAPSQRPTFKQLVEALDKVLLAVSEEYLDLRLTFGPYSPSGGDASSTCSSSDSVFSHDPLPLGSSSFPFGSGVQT

On to `CNc1nc(Nc2ccc(C(=O)N3CCOCC3)cc2OC)nc2[nH]cc(C#N)c12` [Example 1, 2-((2-methoxy-4-(morpholine-4-carbonyl)phenyl)amino)-4-(methylamino)-7H-pyrrolo[2,3-d]pyrimidine-5-carbonitrile], for which the remaining binding at 1 µM in experiment [1] was determined as 88%; in experiment [2], 89%; in experiment [3] it was 99%; in experiment [4] it was 99%; in experiment [5], 88%.

With `CC1(Nc2nc(Nc3cnn([C@H]4CCN(C5COC5)C[C@@H]4F)c3Cl)nc3[nH]cc(C#N)c23)CC1` [Example 52, 2-((5-chloro-1-((3S,4S)-3-fluoro-1-(oxetane-3-yl)piperidine-4-yl)-1H-pyrazole-4-yl)amino)((1-methylcyclopropyl)amino)-7H-pyrrolo[2,3-d]pyrimidine-5-carbonitrile], the remaining binding at 1 µM worked out at 2.5% in experiment [1]; 31% in experiment [2]; 70% in experiment [3]; 55% in experiment [4]; 93% in experiment [5].

Regarding `CCNc1nc(Nc2ccc(C(=O)N3CCC(N4CCOCC4)CC3)cc2OC)nc2[nH]cc(C(F)(F)F)c12` [Example 104, (4-((4-(ethylamino)-5-(trifluoromethyl)-7H-pyrrolo[2,3-d]pyrimidine-2-yl)amino)-3-methoxyphenyl)(4-morpholinopiperidine-1-yl)methanone], the remaining binding at 1 µM in experiment [1] came out at 99%; in experiment [2], 38%; in experiment [3], 91%; in experiment [4], 27%; in experiment [5], 98%.
